# Source: US11219625B2, “Inhibitors of N-linked glycosylation and methods using same” (YALE UNIVERSITY, priority 2015, dated 2022)
# System: EGFR
# Experiment: Surface biotinylation of EGFR, H3255 cells
# Format: cell-based
# Conditions: H3255, 10 μM NGI-1, 24 h
# Experimental: FIGS. 3A-3F illustrate the finding that NGI-1 disrupts EGFR glycosylation and cell surface expression. FIG. 3A illustrates EGFR western blots from H3255 treated with or without 10 μM NGI-1 for 24 h. Molecular weight size shifts are compared to PNGase digestion and tunicamycin treatment alone. FIG. 3B illustrates EGFR localization in H3255 cells after 24 h 10 μM NGI-1 treatment analyzed by western blot. Plasma membrane proteins present on the surface of H3255 cells were biotinylated using a non-permeable form of biotin, sulfo-NHS—SS-biotin, and precipitated by streptavidin agarose beads. Biotin-labeled plasma membrane proteins and the fraction of non-biotinylated proteins were subjected to SDS-PAGE and analyzed by western blot against EGFR. FIG. 3C illustrates EGFR localization in H3255 cells after 24 h 10 μM NGI-1 treatment analyzed by confocal microscopy. H3255 cells were subjected to immunofluorescence for EGFR protein (red) counterstained with (CRT; green) and colocalization was determined by confocal microscopy. Nuclei were counterstained with ToPro3 (cyan). […] Bar, 10 μm. FIG. 3D illustrates quantification of colocalization using Image J Colormap Software. […] ITB1 localization after 10 μM NGI-1 for 48 h analyzed by (FIG. 3E) surface biotinylation (FIG. 3F) confocal microscopy (green). […]
smiles,measurement,value
"Cc1cnc(NC(=O)c2cc(S(=O)(=O)N(C)C)ccc2N2CCCC2)s1 [NGI-1, 5-(N,N-Dimethylsulfamoyl)-N-(5-methylthiazol-2-yl)-2-(pyrrolidin-1-yl)benzamide]","EGFR distribution, biotinylated vs non-biotinylated fraction",predominantly found in the non-biotinylated intracellular fraction
